# Reference: PubChem BioAssay (NCI)
#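 Test compounds were applied to cells in 96-well plates for 48 hours at 5 doses. TGI is the concentration that stops growth completely.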
# Tests used:
# Assay in all cases: NCI tumour cell line growth inhibition, 48 h
# SN12C renal = system: SN12C renal
# SW-620 colon = system: SW-620 colon
# CAKI-1 renal = system: CAKI-1 renal
# ACHN renal = system: ACHN renal
# HCT-15 colon = system: HCT-15 colon
# DU-145 prostate = system: DU-145 prostate
# LOX IMVI melanoma = system: LOX IMVI melanoma
# SK-MEL-5 melanoma = system: SK-MEL-5 melanoma
# NCI-H460 lung = system: NCI-H460 lung
# 786-0 renal = system: 786-0 renal
# SF-539 CNS = system: SF-539 CNS
# HOP-92 NSCLC = system: HOP-92 NSCLC
# UACC-257 melanoma = system: UACC-257 melanoma
# T-47D breast = system: T-47D breast
# CCRF-CEM leukemia = system: CCRF-CEM leukemia
# COLO 205 colon = system: COLO 205 colon
# MOLT-4 leukemia = system: MOLT-4 leukemia
# NCI-H522 lung = system: NCI-H522 lung
# MDA-MB-435 = system: MDA-MB-435
# HL-60(TB) leukemia = system: HL-60(TB) leukemia
# U251 CNS = system: U251 CNS
# BT-549 breast = system: BT-549 breast
# A498 renal = system: A498 renal
# SK-MEL-2 melanoma = system: SK-MEL-2 melanoma
# RXF 393 renal = system: RXF 393 renal
# OVCAR-3 ovarian = system: OVCAR-3 ovarian
# M14 melanoma = system: M14 melanoma
# HCT-116 colon = system: HCT-116 colon
# IGROV1 ovarian = system: IGROV1 ovarian
# UACC-62 melanoma = system: UACC-62 melanoma
# MALME-3M melanoma = system: MALME-3M melanoma
# SNB-19 CNS = system: SNB-19 CNS
# SK-MEL-28 melanoma = system: SK-MEL-28 melanoma
# TK-10 renal = system: TK-10 renal
# KM12 colon = system: KM12 colon
# HOP-62 NSCLC = system: HOP-62 NSCLC
# PC-3 prostate = system: PC-3 prostate
# MDA-MB-231 breast = system: MDA-MB-231 breast
# K-562 leukemia = system: K-562 leukemia
# NCI/ADR-RES ovarian = system: NCI/ADR-RES ovarian
# EKVX NSCLC = system: EKVX NSCLC
# SF-268 CNS = system: SF-268 CNS
# MCF7 breast = system: MCF7 breast
# OVCAR-5 ovarian = system: OVCAR-5 ovarian
# RPMI-8226 leukemia = system: RPMI-8226 leukemia
# OVCAR-4 ovarian = system: OVCAR-4 ovarian
# HT29 colon = system: HT29 colon
# SK-OV-3 ovarian = system: SK-OV-3 ovarian
# OVCAR-8 ovarian = system: OVCAR-8 ovarian
# HS 578T breast = system: HS 578T breast
# UO-31 renal = system: UO-31 renal
# A549 NSCLC = system: A549 NSCLC
# SR leukemia = system: SR leukemia
# MDA-N = system: MDA-N
# SF-295 CNS = system: SF-295 CNS
# NCI-H23 lung = system: NCI-H23 lung
# SNB-75 CNS = system: SNB-75 CNS
# NCI-H226 lung = system: NCI-H226 lung
# HCC-2998 colon = system: HCC-2998 colon
structure (smiles),measurement,setting,value
CCCCCC1CC=CC(=O)O1 (stereo unspecified),TGI,SN12C renal,21.2 µM
same,TGI,SW-620 colon,29.1 µM
same,TGI,CAKI-1 renal,20.5 µM
same,TGI,ACHN renal,33 µM
same,TGI,HCT-15 colon,21.9 µM
same,TGI,DU-145 prostate,> 100 µM
same,TGI,LOX IMVI melanoma,25.1 µM
same,TGI,SK-MEL-5 melanoma,26.8 µM
same,TGI,NCI-H460 lung,33.6 µM
same,TGI,786-0 renal,15.2 µM
same,TGI,SF-539 CNS,3.83 µM
same,TGI,HOP-92 NSCLC,37.7 µM
same,TGI,UACC-257 melanoma,32.9 µM
same,TGI,T-47D breast,62.4 µM
same,TGI,CCRF-CEM leukemia,19.7 µM
same,TGI,COLO 205 colon,16.7 µM
same,TGI,MOLT-4 leukemia,> 100 µM
same,TGI,NCI-H522 lung,9.71 µM
same,TGI,MDA-MB-435,20.2 µM
same,TGI,HL-60(TB) leukemia,> 100 µM
same,TGI,U251 CNS,17.2 µM
same,TGI,BT-549 breast,33.7 µM
same,TGI,A498 renal,> 100 µM
same,TGI,SK-MEL-2 melanoma,23.5 µM
same,TGI,RXF 393 renal,23.1 µM
same,TGI,OVCAR-3 ovarian,31.3 µM
same,TGI,M14 melanoma,26.6 µM
same,TGI,HCT-116 colon,5.83 µM
same,TGI,IGROV1 ovarian,17.7 µM
same,TGI,UACC-62 melanoma,25.3 µM
same,TGI,MALME-3M melanoma,20.2 µM
same,TGI,SNB-19 CNS,54.1 µM
same,TGI,SK-MEL-28 melanoma,18.5 µM
same,TGI,TK-10 renal,38.1 µM
same,TGI,KM12 colon,20.5 µM
same,TGI,HOP-62 NSCLC,18.5 µM
same,TGI,PC-3 prostate,26.3 µM
same,TGI,MDA-MB-231 breast,24.1 µM
same,TGI,K-562 leukemia,42.7 µM
same,TGI,NCI/ADR-RES ovarian,25.6 µM
same,TGI,EKVX NSCLC,20.6 µM
same,TGI,SF-268 CNS,40.8 µM
same,TGI,MCF7 breast,40.3 µM
same,TGI,OVCAR-5 ovarian,21.4 µM
same,TGI,RPMI-8226 leukemia,12.4 µM
same,TGI,OVCAR-4 ovarian,13.8 µM
same,TGI,HT29 colon,17.8 µM
same,TGI,SK-OV-3 ovarian,36.9 µM
same,TGI,OVCAR-8 ovarian,22.2 µM
same,TGI,HS 578T breast,88.5 µM
same,TGI,UO-31 renal,24 µM
same,TGI,A549 NSCLC,65.8 µM
same,TGI,SR leukemia,31.6 µM
same,TGI,MDA-N,38.2 µM
same,TGI,SF-295 CNS,35.6 µM
same,TGI,NCI-H23 lung,43 µM
Cn1c2ccccc2n2c3ncccc3c(=NCCCC(=O)O)c(C#N)c12,TGI,SNB-75 CNS,> 100 µM
same,TGI,SN12C renal,> 100 µM
same,TGI,SW-620 colon,> 100 µM
same,TGI,CAKI-1 renal,> 100 µM
same,TGI,ACHN renal,> 100 µM
same,TGI,HCT-15 colon,> 100 µM
same,TGI,DU-145 prostate,> 100 µM
same,TGI,LOX IMVI melanoma,> 100 µM
same,TGI,SK-MEL-5 melanoma,> 100 µM
same,TGI,NCI-H226 lung,> 100 µM
same,TGI,NCI-H460 lung,> 100 µM
same,TGI,786-0 renal,> 100 µM
same,TGI,HCC-2998 colon,> 100 µM
same,TGI,T-47D breast,> 100 µM
same,TGI,CCRF-CEM leukemia,> 100 µM
same,TGI,COLO 205 colon,> 100 µM
same,TGI,MOLT-4 leukemia,> 100 µM
same,TGI,NCI-H522 lung,> 100 µM
same,TGI,MDA-MB-435,> 100 µM
same,TGI,HL-60(TB) leukemia,> 100 µM
same,TGI,U251 CNS,> 100 µM
same,TGI,BT-549 breast,> 100 µM
same,TGI,A498 renal,> 100 µM
same,TGI,SK-MEL-2 melanoma,> 100 µM
same,TGI,RXF 393 renal,> 100 µM
same,TGI,OVCAR-3 ovarian,> 100 µM
same,TGI,M14 melanoma,> 100 µM
same,TGI,HCT-116 colon,> 100 µM
same,TGI,IGROV1 ovarian,> 100 µM
same,TGI,UACC-62 melanoma,> 100 µM
same,TGI,MALME-3M melanoma,> 100 µM
same,TGI,SNB-19 CNS,> 100 µM
same,TGI,SK-MEL-28 melanoma,> 100 µM
same,TGI,KM12 colon,> 100 µM
same,TGI,HOP-62 NSCLC,> 100 µM
same,TGI,PC-3 prostate,> 100 µM
same,TGI,MDA-MB-231 breast,> 100 µM
same,TGI,K-562 leukemia,> 100 µM
same,TGI,NCI/ADR-RES ovarian,> 100 µM
same,TGI,EKVX NSCLC,> 100 µM
same,TGI,SF-268 CNS,> 100 µM
same,TGI,MCF7 breast,> 100 µM
same,TGI,OVCAR-5 ovarian,> 100 µM
same,TGI,RPMI-8226 leukemia,> 100 µM
same,TGI,OVCAR-4 ovarian,> 100 µM
same,TGI,HT29 colon,> 100 µM
same,TGI,SK-OV-3 ovarian,> 100 µM
same,TGI,OVCAR-8 ovarian,> 100 µM
same,TGI,HS 578T breast,> 100 µM
same,TGI,UO-31 renal,> 100 µM
same,TGI,A549 NSCLC,> 100 µM
same,TGI,SR leukemia,> 100 µM
same,TGI,MDA-N,> 100 µM
same,TGI,SF-295 CNS,> 100 µM
same,TGI,NCI-H23 lung,> 100 µM
